The record followed here is patent US20250059156A1, “THERAPEUTIC ALKALOID COMPOUNDS” (Sensorium Therapeutics, Inc., priority 2022, published 2025).

One assay deals with SERT (Homo sapiens (Human), UniProt P31645). Nature of the assay: SERT inhibition assay (Neurotransmitter Transporter Fluorescence assay). In kind it is cell-based. The following applies: class symbols; legend in nM/micromolar. The procedure: SERT inhibition was measured using a Neruotransmitter Transportation Fluorescence assay. Briefly, stable 5HHH cells were prepared in a 384 microwell plate. Compounds were prepared by in assay buffer (20 mM HEPES, 0.1% BSA). The compounds were added to the plated cells and incubated for 30 minutes at 37° C. 25 μL of dye solution (Molecular Devices Neurotransmitter Transporter Uptake Assay Kit) was added per well and incubated for 30 minutes at 37° C. The plates were then read on a plate reader.

Another assay addresses PDE4A1A (Homo sapiens (Human), UniProt P27815). The experiment in a line: PDE4 percent inhibition assay. The assay is classed as biochemical. The following applies: for inhibition at 10 µM: read-out: PDE4 Isoform % Inhibition @ 10 μM PDE4A1A. The procedure: (§1) PDE4 assay kit (BPS Bioscience, San Diego, CA), as described below.
(§2) • 1) Dilute 20 μM FAM-Cyclic-3′, 5′-AMP stock 100-fold with PDE buffer to make a 200 nM solution. Make only sufficient quantity needed for the assay; store remaining 20 μM stock solution in aliquots at −20° C. • 2) Add 25 μl of FAM-Cyclic-3′,5′-AMP (200 nM) to each well designated “Positive Control”, “Test Inhibitor”, and “Substrate Control”. • 3) Add 20 μl of PDE assay buffer to each well designated “Substrate Control” and 45 μl of PDE assay buffer to each well designated “Blank”. • 4) Add 5 μl of inhibitor solution to each well designated “Test Inhibitor”. For the wells labeled “Positive Control”, “Substrate Control” and “Blank”, add 5 μl of the same solution without inhibitor (inhibitor buffer). • 5) Thaw PDE on ice. Upon first thaw, briefly spin tube containing enzyme to recover the full contents of the tube. • 6) Dilute PDE4 in PDE buffer to 7.5 pg/μl (0.15 ng/reaction)*. Initiate reaction by adding 20 μl of PDE4 (7.5 pg/μl) to the wells designated “Positive Control” and “Test Inhibitor.” • 7) Incubate at room temperature for 1 hour.
(§3) • 1) Mix binding agent thoroughly and dilute binding agent 1:100 with binding agent diluent. • 2) Add 100 μl diluted binding agent to each microwell. Incubate at room temperature for 1 hour with slow shaking. • 3) Read the fluorescent polarization of the sample in a microtiter-plate reader equipped for the measurement of fluorescence polarization, capable of excitation at wavelengths ranging from 485±5 nm and detection of emitted light ranging from 528±10 nm. Blank value is subtracted from all other values.
(§4) 100 µM dilutions of the test compounds were prepared in assay buffer (10% DMSO concentration) and 5 μl of the dilution was added to a 50 μl reaction so that the final concentration of DMSO is 1% in all of reactions.
(§5) The enzymatic reactions were conducted at room temperature for 60 minutes in a 50 μl mixture containing PDE assay buffer, 100 nM FAM-cAMP, a PDE enzyme and the test compound.
(§6) After the enzymatic reaction, 100 Is of a binding solution (1:100 dilution of the binding agent with the binding agent diluent) was added to each reaction and the reaction was performed at room temperature for 60 minutes.
(§7) Fluorescence intensity was measured at an excitation of 485 nm and an emission of 528 nm using a Tecan Infinite M1000 microplate reader.

Another assay deals with PDE4B2 (Homo sapiens (Human), UniProt Q07343). The experiment in a line: PDE4 percent inhibition assay. In kind it is biochemical. Conditions: for inhibition at 10 µM: read-out: PDE4 Isoform % Inhibition @ 10 μM PDE4B2. The procedure: as §1, §2, §3, §4, §5, §6, §7
The next assay deals with PDE4C1 (Homo sapiens (Human), UniProt Q08493). The experiment in a line: PDE4 percent inhibition assay. In kind it is biochemical. The following applies: for inhibition at 10 µM: read-out: PDE4 Isoform % Inhibition @ 10 μM PDE4C1. The procedure:
as §1, §2, §3, §4, §5, §6, §7

A further assay deals with PDE4D2 (Homo sapiens (Human), UniProt Q08499). The experiment in a line: PDE4 percent inhibition assay. The assay is classed as biochemical. The following applies: for inhibition at 10 µM: read-out: PDE4 Isoform % Inhibition @ 10 μM PDE4D2. The procedure: as §1, §2, §3, §4, §5, §6, §7

Each structure is given as a SMILES string. Where only a bound is given, the exact number is not on record here.

PDE4D2, sequence (Q08499 303-809, change not shown): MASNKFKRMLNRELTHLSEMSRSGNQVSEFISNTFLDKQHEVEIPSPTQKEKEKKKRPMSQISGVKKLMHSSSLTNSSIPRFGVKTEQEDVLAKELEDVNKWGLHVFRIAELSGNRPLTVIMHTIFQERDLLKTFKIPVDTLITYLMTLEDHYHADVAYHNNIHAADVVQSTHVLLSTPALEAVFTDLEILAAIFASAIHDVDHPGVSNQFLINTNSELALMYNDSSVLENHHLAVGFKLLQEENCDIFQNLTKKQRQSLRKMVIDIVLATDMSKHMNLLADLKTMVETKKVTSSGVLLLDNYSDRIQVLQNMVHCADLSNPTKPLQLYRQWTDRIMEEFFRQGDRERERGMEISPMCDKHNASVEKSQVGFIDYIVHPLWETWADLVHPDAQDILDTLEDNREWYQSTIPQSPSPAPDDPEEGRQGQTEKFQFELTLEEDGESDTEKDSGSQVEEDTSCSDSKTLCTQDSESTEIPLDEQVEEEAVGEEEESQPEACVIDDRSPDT
PDE4B2, sequence (Q07343 other isoform, or with tags, fused parts or gaps): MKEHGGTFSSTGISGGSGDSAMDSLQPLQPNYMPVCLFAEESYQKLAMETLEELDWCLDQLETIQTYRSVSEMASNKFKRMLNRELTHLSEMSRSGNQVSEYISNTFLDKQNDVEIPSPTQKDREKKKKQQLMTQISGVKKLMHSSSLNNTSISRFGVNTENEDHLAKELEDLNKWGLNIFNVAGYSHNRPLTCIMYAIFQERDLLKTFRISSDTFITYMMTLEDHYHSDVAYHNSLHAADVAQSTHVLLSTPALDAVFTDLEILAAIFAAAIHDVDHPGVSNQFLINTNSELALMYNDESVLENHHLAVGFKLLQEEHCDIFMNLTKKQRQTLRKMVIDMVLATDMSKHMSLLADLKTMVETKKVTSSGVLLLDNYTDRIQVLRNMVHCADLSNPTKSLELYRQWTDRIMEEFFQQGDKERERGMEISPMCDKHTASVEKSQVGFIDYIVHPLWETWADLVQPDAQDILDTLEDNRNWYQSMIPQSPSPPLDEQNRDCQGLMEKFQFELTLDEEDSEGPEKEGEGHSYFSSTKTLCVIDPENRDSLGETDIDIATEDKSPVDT
PDE4A1A, sequence (P27815 other isoform, or with tags, fused parts or gaps): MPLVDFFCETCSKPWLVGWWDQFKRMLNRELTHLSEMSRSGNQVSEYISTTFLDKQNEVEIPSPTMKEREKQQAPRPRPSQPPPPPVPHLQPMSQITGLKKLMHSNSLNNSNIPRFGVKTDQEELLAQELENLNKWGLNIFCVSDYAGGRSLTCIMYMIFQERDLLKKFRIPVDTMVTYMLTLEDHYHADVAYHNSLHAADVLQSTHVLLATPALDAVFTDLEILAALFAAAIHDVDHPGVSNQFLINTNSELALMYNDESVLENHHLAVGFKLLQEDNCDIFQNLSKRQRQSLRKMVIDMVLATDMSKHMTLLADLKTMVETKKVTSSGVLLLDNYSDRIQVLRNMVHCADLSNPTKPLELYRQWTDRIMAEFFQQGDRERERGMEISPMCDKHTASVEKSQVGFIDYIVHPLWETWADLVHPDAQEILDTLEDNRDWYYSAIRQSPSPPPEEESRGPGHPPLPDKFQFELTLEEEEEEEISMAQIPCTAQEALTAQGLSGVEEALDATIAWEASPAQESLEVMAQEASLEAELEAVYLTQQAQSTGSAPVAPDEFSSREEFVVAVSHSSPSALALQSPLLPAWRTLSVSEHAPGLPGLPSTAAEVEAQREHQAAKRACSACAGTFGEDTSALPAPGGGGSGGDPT
PDE4C1, sequence (Q08493 whole entry, canonical isoform): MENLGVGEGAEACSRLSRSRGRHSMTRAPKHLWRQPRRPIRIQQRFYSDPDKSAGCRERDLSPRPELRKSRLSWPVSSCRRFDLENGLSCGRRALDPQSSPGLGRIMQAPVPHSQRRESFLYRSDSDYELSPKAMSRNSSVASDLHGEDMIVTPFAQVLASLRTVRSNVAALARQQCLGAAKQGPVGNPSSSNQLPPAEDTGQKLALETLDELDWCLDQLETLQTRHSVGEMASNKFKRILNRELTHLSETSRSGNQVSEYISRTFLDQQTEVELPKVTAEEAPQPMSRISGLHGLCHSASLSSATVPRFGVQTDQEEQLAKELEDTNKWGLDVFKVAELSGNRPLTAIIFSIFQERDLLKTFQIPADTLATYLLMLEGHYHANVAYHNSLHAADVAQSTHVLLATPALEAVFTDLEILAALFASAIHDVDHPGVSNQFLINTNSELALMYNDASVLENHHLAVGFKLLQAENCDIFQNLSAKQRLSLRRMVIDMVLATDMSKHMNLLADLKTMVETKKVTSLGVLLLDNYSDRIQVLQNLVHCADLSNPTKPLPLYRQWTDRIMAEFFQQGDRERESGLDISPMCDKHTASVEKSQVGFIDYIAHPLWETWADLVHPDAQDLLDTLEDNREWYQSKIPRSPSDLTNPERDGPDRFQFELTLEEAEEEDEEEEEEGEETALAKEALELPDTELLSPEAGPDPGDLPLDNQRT
SERT, sequence (P31645 whole entry, species assumed): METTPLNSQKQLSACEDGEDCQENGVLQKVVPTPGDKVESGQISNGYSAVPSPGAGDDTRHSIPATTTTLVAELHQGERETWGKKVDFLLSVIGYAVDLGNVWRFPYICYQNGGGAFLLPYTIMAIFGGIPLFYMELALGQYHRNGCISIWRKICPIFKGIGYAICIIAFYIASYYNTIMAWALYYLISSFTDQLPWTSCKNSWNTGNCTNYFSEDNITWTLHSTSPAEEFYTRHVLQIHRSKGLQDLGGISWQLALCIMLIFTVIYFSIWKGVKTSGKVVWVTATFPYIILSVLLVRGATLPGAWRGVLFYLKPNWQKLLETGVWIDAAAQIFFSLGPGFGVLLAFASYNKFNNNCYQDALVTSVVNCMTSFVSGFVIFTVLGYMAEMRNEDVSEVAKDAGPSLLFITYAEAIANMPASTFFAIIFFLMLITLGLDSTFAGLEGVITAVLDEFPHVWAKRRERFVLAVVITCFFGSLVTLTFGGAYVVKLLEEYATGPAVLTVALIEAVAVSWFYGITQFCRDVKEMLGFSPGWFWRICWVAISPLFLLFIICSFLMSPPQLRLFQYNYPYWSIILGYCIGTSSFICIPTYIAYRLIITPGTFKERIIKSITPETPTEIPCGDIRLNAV

For orientation: IC50 means the midpoint of a concentration-inhibition curve. A lower IC50 goes with inhibition by little substance. By inhibition is commonly meant the share of the control response that was lost under treatment. For the compound `COc1ccc([C@@]23CC[C@@H](N4CCCC4=O)C[C@@H]2N(C)CC3)cc1OC` [Compound 110, 1-((3aS,6R,7aS)-3a-(3,4-dimethoxyphenyl)-1-methyloctahydro-1H-indol-6-yl)pyrrolidin-2-one], at SERT, the IC50 was less than 50 nM. For the same compound, the inhibition at 10 µM on PDE4A1A, at PDE4B2, at PDE4C1 and on PDE4D2 was less than 30% each time.
Regarding `COc1ccc([C@@]23CC[C@H](N4CCC4)C[C@@H]2N(C)CC3)cc1OC` [Compound 104, (3aS,6S,7aS)-6-(azetidin-1-yl)-3a-(3,4-dimethoxyphenyl)-1-methyloctahydro-1H-indole], the 50% inhibitory concentration (IC50) against SERT fell in the range of 100 to 500 nM. The inhibition at 10 µM at PDE4A1A, on PDE4B2, at PDE4C1 and at PDE4D2 was less than 30% each time.
On to `COc1ccc([C@@]23CCN(C)[C@@H]2[C@H]2C[C@@H]3CC2=O)cc1OC` [Compound 214], for which the IC50 at SERT lay in the range of 100 to 500 nM. Besides, the “PDE4 Isoform % Inhibition @ 10 μM PDE4A1A” value on PDE4A1A is listed as “A (A if the % inhibition is greater than or equal to 70%)”. Further, at PDE4B2, the “PDE4 Isoform % Inhibition @ 10 μM PDE4B2” value is given as “C (C is the percent inhibition is 30-50%)”. Besides, the “PDE4 Isoform % Inhibition @ 10 μM PDE4C1” value on PDE4C1 was “D (D if the percent inhibition is less than 30%)”. In addition, the “PDE4 Isoform % Inhibition @ 10 μM PDE4D2” value at PDE4D2 is given as “C (C is the percent inhibition is 30-50%)”.
For the compound `COc1ccc([C@]23CCN(C)[C@H]2[C@@H]2CCC[C@H]3CC2=O)cc1OC` [Compound 218], the IC50 against SERT is less than 50 nM. The “PDE4 Isoform % Inhibition @ 10 μM PDE4A1A” value on PDE4A1A is “D (D if the percent inhibition is less than 30%)”. Moreover, the “PDE4 Isoform % Inhibition @ 10 μM PDE4B2” value on PDE4B2 is on record as “D (D if the percent inhibition is less than 30%)”. Besides, on PDE4C1, the “PDE4 Isoform % Inhibition @ 10 μM PDE4C1” value is “D (D if the percent inhibition is less than 30%)”. Besides, at PDE4D2, the “PDE4 Isoform % Inhibition @ 10 μM PDE4D2” value is “D (D if the percent inhibition is less than 30%)”.
In the case of `COc1ccc([C@@]23CC[C@H](n4cccn4)C[C@@H]2N(C)CC3)cc1OC` [Compound 102, (3aS,6S,7aS)-3a-(3,4-dimethoxyphenyl)-1-methyl-6-(1H-pyrazol-1-yl)octahydro-1H-indole], the IC50 on SERT was less than 50 nM. Besides, the inhibition at 10 µM on PDE4A1A, at PDE4B2, on PDE4C1 and at PDE4D2 was less than 30% throughout.
Turning to `COc1ccc([C@@]23CC[C@@H](N4CCC4)C[C@@H]2N(C)CC3)cc1OC` [Compound 116, (3aS,6R,7aS)-6-(azetidin-1-yl)-3a-(3,4-dimethoxyphenyl)-1-methyloctahydro-1H-indole], the IC50 at SERT lay within 500 to 1000 nM. The inhibition at 10 µM on PDE4A1A, on PDE4B2, on PDE4C1 and at PDE4D2 was less than 30% in each case.
In turn, `COc1ccc([C@]23CCN(C)[C@H]2[C@@H]2C[C@H]3CC2=O)cc1OC` [Compound 213] registered an IC50 on SERT greater than 1000 nM. The “PDE4 Isoform % Inhibition @ 10 μM PDE4A1A” value on PDE4A1A was “A (A if the % inhibition is greater than or equal to 70%)”. Also, the “PDE4 Isoform % Inhibition @ 10 μM PDE4B2” value at PDE4B2 is “A (A if the % inhibition is greater than or equal to 70%)”. Further, the “PDE4 Isoform % Inhibition @ 10 μM PDE4C1” value at PDE4C1 is “A (A if the % inhibition is greater than or equal to 70%)”. Also, on PDE4D2, the “PDE4 Isoform % Inhibition @ 10 μM PDE4D2” value is listed as “A (A if the % inhibition is greater than or equal to 70%)”.
As for `COc1ccc([C@@]23CCN(C)[C@@H]2[C@@H]2C[C@H]3CC2=O)cc1OC` [Compound 216], on SERT, the concentration for half-maximal inhibition (IC50) lay within 50 to 100 nM. The “PDE4 Isoform % Inhibition @ 10 μM PDE4A1A” value on PDE4A1A was “D (D if the percent inhibition is less than 30%)”. At PDE4B2, the “PDE4 Isoform % Inhibition @ 10 μM PDE4B2” value is “D (D if the percent inhibition is less than 30%)”. Moreover, the “PDE4 Isoform % Inhibition @ 10 μM PDE4C1” value at PDE4C1 is reported as “C (C is the percent inhibition is 30-50%)”. The “PDE4 Isoform % Inhibition @ 10 μM PDE4D2” value at PDE4D2 was “D (D if the percent inhibition is less than 30%)”.
Turning to `COc1ccc([C@]23CCN(C)[C@H]2CC(=O)C[C@H]3c2ccccc2)cc1OC` [Compound 207], the half-maximal inhibitory concentration (IC50) at SERT is greater than 1000 nM. Moreover, the “PDE4 Isoform % Inhibition @ 10 μM PDE4A1A” value on PDE4A1A was “B (B if the percent inhibition is 50-70%)”. Moreover, the “PDE4 Isoform % Inhibition @ 10 μM PDE4B2” value at PDE4B2 is on record as “B (B if the percent inhibition is 50-70%)”. Besides, the “PDE4 Isoform % Inhibition @ 10 μM PDE4C1” value at PDE4C1 is on record as “B (B if the percent inhibition is 50-70%)”. On PDE4D2, the “PDE4 Isoform % Inhibition @ 10 μM PDE4D2” value is given as “B (B if the percent inhibition is 50-70%)”.
In turn, `COc1ccc([C@@]23CC[C@@H](N4CCOCC4)C[C@@H]2N(C)CC3)cc1OC` [Compound 109, 4-((3aS,6R,7aS)-3a-(3,4-dimethoxyphenyl)-1-methyloctahydro-1H-indol-6-yl)morpholine] gave a half-maximal inhibitory concentration (IC50) against SERT of 100 to 500 nM. The inhibition at 10 µM on PDE4A1A, at PDE4B2, at PDE4C1 and at PDE4D2 was less than 30% in each case.
On to `COc1ccc([C@]23CCN(C)[C@H]2CC2(CCO2)CC3)cc1OC` (stereo partly drawn) [Compound 118, (3aS,7aS)-3a-(3,4-dimethoxyphenyl)-1-methyloctahydrospiro[indole-6,2′-oxetane]], for which, at SERT, the IC50 is less than 50 nM. Also, the inhibition at 10 µM at PDE4A1A is 30 to 50%; on PDE4B2, less than 30%; at PDE4C1, 30 to 50%; at PDE4D2, 30 to 50%.
Take `COc1ccc([C@@]23CC[C@@H](n4cccn4)C[C@@H]2N(C)CC3)cc1OC` [Compound 103, (3aS,6R,7aS)-3a-(3,4-dimethoxyphenyl)-1-methyl-6-(1H-pyrazol-1-yl)octahydro-1H-indole]: the IC50 on SERT is less than 50 nM. For the same compound, the inhibition at 10 µM on PDE4A1A, on PDE4B2, on PDE4C1 and at PDE4D2 was less than 30% in each case.
The compound `COc1ccc([C@@]23CC[C@@H](N4CCCC4)C[C@@H]2N(C)CC3)cc1OC` [Compound 105, (3aS,6R,7aS)-3a-(3,4-dimethoxyphenyl)-1-methyl-6-(pyrrolidin-1-yl)octahydro-1H-indole] gave an IC50 against SERT of 100 to 500 nM. The inhibition at 10 µM at PDE4A1A, on PDE4B2, at PDE4C1 and at PDE4D2 was less than 30% throughout.
`COc1ccc([C@@]23CC[C@@H](n4ccc(C(F)(F)F)n4)C[C@@H]2N(C)CC3)cc1OC` [Compound 115, (3aS,6R,7aS)-3a-(3,4-dimethoxyphenyl)-1-methyl-6-(3-(trifluoromethyl)-1H-pyrazol-1-yl)octahydro-1H-indole] came in with an IC50 on SERT of less than 50 nM. Moreover, the inhibition at 10 µM at PDE4A1A, at PDE4B2, at PDE4C1 and at PDE4D2 was less than 30% in each case.
On to `COc1ccc([C@@]23CC[C@H](N4CCOCC4)C[C@@H]2N(C)CC3)cc1OC` [Compound 108, 4-((3aS,6S,7aS)-3a-(3,4-dimethoxyphenyl)-1-methyloctahydro-1H-indol-6-yl)morpholine], for which the IC50 on SERT was in the range of 100 to 500 nM. Further, the inhibition at 10 µM at PDE4A1A, at PDE4B2, on PDE4C1 and on PDE4D2 was less than 30% each time.
